Article PMC9694494, “Resveratrol/Hydrazone Hybrids: Synthesis and Chemopreventive Activity against Colorectal Cancer Cells” (Pharmaceutics, 2022)
Read-outs that look alike come from different tables or passages of the source.

Tests used:
[1] = tested on: SW480 cells; test: SRB cell viability (cytotoxicity), SW480; assay type: cell-based, human; conditions: for IC50: Homo sapiens, SW480, SRB, read-out: IC50 ± SEM SW480; for Selectivity Index SI1: CHO-K1/SW480 IC50 ratio; for Selectivity Index SI2: HaCaT/SW480 IC50 ratio
Experimental: (§1) Human colon cancer cell lines (SW480 and SW620), together with nonmalignant cells (CHO-K1 and HaCaT) were used to study the biological activity. Cells were purchased from the European Collection of Authenticated Cell Cultures (ECACC, UK). Dulbecco’s Modified Eagle Medium (DMEM) containing heat-inactivated (56 °C) horse serum (10%), non-essential amino acids (1%) and antibiotics (penicillin/streptomycin, 1%) (Gibco Invitrogen, Carlsbad, CA, USA) was used to maintain the cells, reducing the horse serum to 3%, and, adding insulin ([…]), transferrin ([…]) and selenium (5 ng/mL) (ITS-defined medium; Gibco, Invitrogen, Carlsbad, CA, USA) for all the experiments.
(§2) The colorimetric test with Sulforhodamine B (SRB) was used to evaluate cell viability. Cell density was adjusted to seed 20.000 cells/well in 96-well tissue culture plates. Cells were first incubated for 24 h and then treated with the synthesized hybrids, the lead compounds (PIH and resveratrol), and the reference drug (5-FU) (concentrations between 0.01 and 200 µM), using DMSO (below 1%) as vehicle control. The optimum conditions were 37 °C and 5% CO2. After the end of each treatment, cold trichloroacetic acid (MERCK, 50% v/v) was added and preserved for one hour at 4 °C, to fix the cells. Then, cell proteins were stained with 0.4% (w/v) SRB (Sigma-Aldrich, St. Louis, MO, USA), and subsequently washed with acetic acid (1%) to remove unbound SRB. After air-drying, protein-bound SRB was solubilized in 10 mM Tris-base before reading the absorbance at 492 nm in a microplate reader (Mindray MR-96A). All experiments were performed at least three times.

[2] = tested on: CHO-K1 cells; test: SRB cell viability (cytotoxicity), CHO-K1; assay type: cell-based; conditions: Cricetulus griseus, CHO-K1 nonmalignant cells, read-out: IC50 ± SEM CHO
Experimental: as §1, §2

[3] = tested on: HaCaT cells; test: SRB cell viability (cytotoxicity), HaCaT; assay type: cell-based; conditions: Homo sapiens, HaCaT nonmalignant cells, read-out: IC50 ± SEM HACAT
Experimental: as §1, §2

[4] = tested on: SW620 cells; test: SRB cell viability (cytotoxicity), SW620; assay type: cell-based, human; conditions: for IC50: Homo sapiens, SW-620, SRB, read-out: IC50 ± SEM SW620; for Selectivity Index SI3: CHO-K1/SW620 IC50 ratio; for Selectivity Index SI4: HaCaT/SW620 IC50 ratio
Experimental: as §1, §2

[5] = tested on: HCT 116 cell line; conditions: read-out: IC50 antiproliferative activity; cited from earlier work
[6] = tested on: EC109 cells; set-up: method as in PMID 29475156; conditions: EC109 esophageal carcinoma cells; read-out: IC50 antiproliferative activity; cited from earlier work
[7] = tested on: EC9706 cells; set-up: method as in PMID 29475156; conditions: EC9706 esophageal carcinoma cells; read-out: IC50 antiproliferative activity; cited from earlier work

| melting point | Compound | IC50 ([1]; 24 H) | IC50 ([1]; 48 H) | IC50 ([2]; 24 H) | IC50 ([2]; 48 H) | IC50 ([3]; 24 H) | IC50 ([3]; 48 H) | IC50 ([4]; 24 H) | IC50 ([4]; 48 H) | Selectivity Index SI1 ([1]; 24 H) | Selectivity Index SI2 ([1]; 24 H) | Selectivity Index SI1 ([1]; 48 H) | Selectivity Index SI2 ([1]; 48 H) | Selectivity Index SI3 ([4]; 24 H) | Selectivity Index SI4 ([4]; 24 H) | Selectivity Index SI3 ([4]; 48 H) | Selectivity Index SI4 ([4]; 48 H) | IC50 [5] | IC50 [6] | IC50 [7] |
| --- | --- | --- | --- | --- | --- | --- | --- | --- | --- | --- | --- | --- | --- | --- | --- | --- | --- | --- | --- | --- |
|  | COc1ccc(C(=O)N/N=C/c2c(O)cc(O)cc2/C=C/c2ccc(O)cc2)cc1OC [6g, N′-((E)-2,4-dihydroxy-6-((E)-4-hydroxystyryl)benzylidene)-3,4-dimethoxybenzohydrazide] | 37 ± 2.24 µM | 20.2 ± 2.7 µM | 33.2 ± 1.99 µM | 17.2 ± 2 µM | 63.7 ± 5.27 µM | 17.7 ± 0.5 µM | 191 ± 13 µM | 40.3 ± 2.7 µM |  |  |  |  |  |  |  |  |  |  |  |
| 248 to 250 °C | COc1cccc(C(=O)N/N=C/c2c(O)cc(O)cc2/C=C/c2ccc(O)cc2)c1 [6a, N′-((E)-2,4-dihydroxy-6-((E)-4-hydroxystyryl)benzylidene)-3-methoxybenzohydrazide] | 33 ± 2.13 µM | 24.9 ± 2.8 µM | 28.4 ± 1.48 µM | 13 ± 1.3 µM | 47.5 ± 1.15 µM | 2.2 ± 0.2 µM | 172 ± 9 µM | 41.5 ± 1.2 µM | 0.86 | 1.44 | 0.52 | 0.09 | 0.16 | 0.28 | 0.31 | 0.05 |  |  |  |
|  | COc1cccc(C(=O)N/N=C/c2c(O)cc(O)cc2/C=C/c2ccc(O)cc2)c1OC [6d, N′-((E)-2,4-dihydroxy-6-((E)-4-hydroxystyryl)benzylidene)-2,3-dimethoxybenzohydrazide] | 34.8 ± 3.31 µM | 20.5 ± 1.9 µM | 35.5 ± 2.36 µM | 22.4 ± 2.7 µM | 49.7 ± 1.96 µM | 2.95 ± 0.2 µM | 171 ± 8.7 µM | 49.9 ± 2.1 µM |  |  |  |  |  |  |  |  |  |  |  |
| 260 to 262 °C | COc1ccc(OC)c(C(=O)N/N=C/c2c(O)cc(O)cc2/C=C/c2ccc(O)cc2)c1 [6f, N′-((E)-2,4-dihydroxy-6-((E)-4-hydroxystyryl)benzylidene)-2,5-dimethoxybenzohydrazide] | 23.4 ± 1.31 µM | 12.2 ± 1.2 µM | 22.7 ± 2.25 µM | 15.9 ± 1.6 µM | 42.2 ± 5.9 µM | 14.9 ± 1.3 µM | > 200 µM | 99.4 ± 6.9 µM | 0.97 | 1.80 | 1.30 | 1.22 | 0.11 | 0.21 | 0.16 | 0.15 |  |  |  |
|  | O=C(N/N=C/c1ccccc1OCc1ccccc1)c1ccncc1 [C] |  |  |  |  |  |  |  |  |  |  |  |  |  |  |  |  | 3.1 µM |  |  |
|  | O=c1[nH]cc(F)c(=O)[nH]1 [5-FU, 5-fluorouracil, reference compound] |  |  |  |  | > 1000 µM |  |  |  | 0.35 |  | 0.99 | 0.68 | 0.59 |  | 0.96 | 0.66 | 5 µM |  |  |
| 242 to 244 °C | NC(=S)N/N=C/c1c(O)cc(O)cc1/C=C/c1ccc(O)cc1 [compound 8, 2-((E)-2,4-dihydroxy-6-((E)-4-hydroxystyryl)benzylidene)hydrazine-1-carbothioamide] | 41 ± 3.93 µM | 41.2 ± 2.3 µM | 41.9 ± 2.83 µM | 36.7 ± 3.8 µM | 60.1 ± 3.99 µM | 31.8 ± 1.4 µM | 102 ± 3.5 µM | 64.1 ± 2.9 µM | 1.02 | 1.47 | 0.89 | 0.77 | 0.41 | 0.59 | 0.57 | 0.50 |  |  |  |
|  | COc1ccc(C(=O)N/N=C/c2c(O)cc(O)cc2/C=C/c2ccc(O)cc2)cc1 [6b, N′-((E)-2,4-dihydroxy-6-((E)-4-hydroxystyryl)benzylidene)-4-methoxybenzohydrazide] | 36.1 ± 1.97 µM | 11.3 ± 2.3 µM | 23.4 ± 1.83 µM | 14.4 ± 1.7 µM | 36.9 ± 3.53 µM | 13.9 ± 0.7 µM | 160 ± 9.4 µM | 37.6 ± 2.9 µM |  |  |  |  |  |  |  |  |  |  |  |
|  | O=C(N/N=C/c1c(O)cc(O)cc1/C=C/c1ccc(O)cc1)c1ccc(F)cc1 [6c, N′-((E)-2,4-dihydroxy-6-((E)-4-hydroxystyryl)benzylidene)-4-fluorobenzohydrazide] | 29.2 ± 3.55 µM | 10.8 ± 2 µM | 22.6 ± 2.38 µM | 12 ± 1.6 µM | 32.8 ± 1.33 µM | 14.6 ± 0.8 µM | 57.7 ± 3.6 µM | 12.5 ± 1 µM | 0.77 | 1.12 | 1.11 | 1.35 | 0.39 | 0.57 | 0.96 |  |  |  |  |
|  | Oc1ccc(/C=C/c2cc(O)cc(O)c2)cc1 [RESV, resveratrol] |  |  |  | 64 ± 8.9 µM | > 200 µM | 20.2 ± 2.7 µM | > 200 µM |  | 0.77 | 1.49 | 0.52 | 0.16 | 0.22 | 0.42 | 0.45 | 0.14 |  |  |  |
|  | COc1cc(OC)cc(C(=O)N/N=C/c2c(O)cc(O)cc2/C=C/c2ccc(O)cc2)c1 [6h, N′-((E)-2,4-dihydroxy-6-((E)-4-hydroxystyryl)benzylidene)-3,5-dimethoxybenzohydrazide] | 29.1 ± 1.31 µM | 7.2 ± 2 µM | 22.8 ± 1.31 µM | 14 ± 1.2 µM | 43.2 ± 4.02 µM | 4.5 ± 0.6 µM | 126 ± 20.9 µM | 26 ± 3.2 µM |  |  |  |  |  |  |  |  |  |  |  |
|  | O=C(N/N=C/c1c(O)ccc2ccccc12)c1ccncc1 [D] |  |  |  |  |  |  |  |  |  |  |  |  |  |  |  |  | 0.29 µM |  |  |
|  | CCOc1cccc(/C=N/NC(=O)c2cccc(S(=O)(=O)N3CCOCC3)c2)c1O [I] |  |  |  |  |  |  |  |  |  |  |  |  |  |  |  |  |  | 2.79 ± 0.45 µM | 1.09 ± 0.03 µM |
|  | Cc1ncc(CO)c(/C=N/NC(=O)c2ccncc2)c1O [PIH, pyridoxal isonicotinoyl hydrazone, reference compound] | > 200 µM | 112 ± 5.9 µM | > 200 µM | 75.3 ± 6.4 µM | > 200 µM | 101 ± 10.8 µM | > 200 µM | 119 ± 7 µM | 1.10 | 0.86 | 0.67 | 0.90 | 1.53 | 1.19 | 0.63 | 0.85 |  |  |  |
